Here are results for 28 compounds from patent publication US9988400B2 (Genentech, Inc., priority 2013, dated 2018).

The target of this assay is T1, HEK cells stably transfected with tetracycline inducible hNR1 and hNR2A (Homo sapiens, UniProt Q05586+Q12879).
T1 construct: expressed in transfected cells; host or cells: HEK cells, stably transfected, tetracycline/doxycycline inducible
Description: Assay 1: Cell-Based Assay, cytosolic calcium response to positive allosteric modulators (with 30 μM glycine and 300 nM L-glutamate, EC30). The settings on record: for EC50: cytosolic calcium response, with 30 μM glycine and 300 nM L-glutamate (EC30), — = no plateau was reached; for Max %: responses scaled relative to 100 μM L-glutamate maximal response (100%) and 0 μM L-glutamate (0%). As for the experimental part: Assay 1: Cell-Based Assay
HEK cells stably transfected with tetracycline inducible hNR1 and hNR2A were seeded into clear bottom 384 well poly-D-lysine coated plates (2.5×10^4 cells per well) in Minimum Essential Media (MEM; without L-) including 7.5 μg mL^−1 doxycycline and 500 μM (+)-ketamine. The cells were incubated at 37° C. in 5% CO2 for 24 h. For measurement of changes in cytosolic calcium, the seeding media was removed and the cells incubated at 37° C. for 60 min with 1× Becton Dickinson Calcium Assay Kit reagent in Hanks Balanced Salt Solution (HBSS; w/o magnesium, including 1.8 mM calcium, 0.65 mg ml^−1 probenecid and 10 μM (+)-ketamine, pH 7.15) then allowed to equilibrate to rt for 30 min. Concentration-effect curves to Positive Allosteric Modulators (PAMs) were constructed by adding different concentrations (with 30 μM glycine and 300 nM L-glutamate (EC30)) to different wells in HBSS. Compounds were added after a 10 second baseline read and maximum level of relative fluorescence units (RFU) was measured over a 5 min period. Responses were scaled relative to 100 μM L-glutamate maximal response (100%) and 0 μM L-glutamate (0%). EC50 values are provided for compounds reaching maximal response plateaus, and the max % (EC50 (- -)) only if no plateau was reached.
A four-parameter Hill equation was fitted to individual concentration-effect curves:
[formula] in which Y, S0, Sinf, AC50, n and c were effect, lower-asymptote, upper-asymptote, mid-point location, slope parameter, and concentration respectively.

T1 sequence (Q12879 23-1464, other chains not shown): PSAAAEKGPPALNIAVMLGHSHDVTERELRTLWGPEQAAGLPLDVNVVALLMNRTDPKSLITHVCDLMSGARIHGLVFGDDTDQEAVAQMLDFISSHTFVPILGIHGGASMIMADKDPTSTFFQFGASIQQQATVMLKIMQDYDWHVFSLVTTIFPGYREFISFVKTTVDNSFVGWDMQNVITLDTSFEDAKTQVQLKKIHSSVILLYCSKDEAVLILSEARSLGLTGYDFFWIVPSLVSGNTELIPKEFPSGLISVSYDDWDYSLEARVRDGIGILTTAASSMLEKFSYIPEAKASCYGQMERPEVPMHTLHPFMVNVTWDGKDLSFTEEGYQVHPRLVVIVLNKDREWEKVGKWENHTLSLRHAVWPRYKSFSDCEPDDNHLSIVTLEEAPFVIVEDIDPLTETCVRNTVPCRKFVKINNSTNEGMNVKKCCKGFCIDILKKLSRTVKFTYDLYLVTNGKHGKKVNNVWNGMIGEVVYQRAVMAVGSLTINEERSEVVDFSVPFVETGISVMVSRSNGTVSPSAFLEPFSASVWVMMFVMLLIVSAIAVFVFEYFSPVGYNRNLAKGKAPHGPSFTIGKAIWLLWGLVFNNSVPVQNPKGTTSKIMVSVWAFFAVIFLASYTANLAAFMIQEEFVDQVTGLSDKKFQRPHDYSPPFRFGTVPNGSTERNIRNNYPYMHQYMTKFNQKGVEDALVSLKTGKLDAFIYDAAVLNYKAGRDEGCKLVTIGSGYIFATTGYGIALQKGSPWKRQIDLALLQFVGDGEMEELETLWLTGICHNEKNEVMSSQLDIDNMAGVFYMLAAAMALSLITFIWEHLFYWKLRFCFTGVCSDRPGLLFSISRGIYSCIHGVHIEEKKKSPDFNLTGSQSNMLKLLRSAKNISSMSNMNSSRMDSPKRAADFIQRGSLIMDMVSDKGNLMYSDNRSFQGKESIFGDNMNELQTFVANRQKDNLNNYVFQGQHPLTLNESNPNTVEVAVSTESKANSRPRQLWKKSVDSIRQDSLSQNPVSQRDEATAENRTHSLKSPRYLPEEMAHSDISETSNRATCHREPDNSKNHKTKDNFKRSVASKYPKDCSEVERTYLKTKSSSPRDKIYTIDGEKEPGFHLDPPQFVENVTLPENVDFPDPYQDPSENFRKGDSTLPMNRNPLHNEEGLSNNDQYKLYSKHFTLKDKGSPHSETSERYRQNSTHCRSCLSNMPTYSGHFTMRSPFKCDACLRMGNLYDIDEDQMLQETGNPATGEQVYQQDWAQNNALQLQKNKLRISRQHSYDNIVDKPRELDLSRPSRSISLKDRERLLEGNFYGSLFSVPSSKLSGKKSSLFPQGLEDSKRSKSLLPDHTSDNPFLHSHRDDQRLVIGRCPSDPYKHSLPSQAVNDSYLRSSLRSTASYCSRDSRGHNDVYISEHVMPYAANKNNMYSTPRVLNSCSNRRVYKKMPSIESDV

`Cc1sc2nc(Cc3cc(C#N)ccc3C3CC3)cc(=O)n2c1[C@@H]1C[C@H]1CO` (relative stereo) [Example 20.13, 4-cyclopropyl-3-((3-(trans-2-(hydroxymethyl)cyclopropyl)-2-methyl-5-oxo-5H-thiazolo[3,2-a]pyrimidin-7-yl)methyl)benzonitrile]: for the setting “Table 2”, the EC50 was 5.8 µM and the Max % stood at 146%. With `CCNC(=O)c1c(C)sc2nc(Cn3nc(Cl)cc3C3CC3)cc(=O)n12` [compound 22, 7-[(3-chloro-5-cyclopropyl-pyrazol-1-yl)methyl]-N-ethyl-2-methyl-5-oxo-thiazolo[3,2-a]pyrimidine-3-carboxamide], the EC50 (Table 3) came out at 4.13 µM. As to `CCNC(=O)c1c(C(F)(F)F)sc2nc(COc3ccc(F)cc3)cc(=O)n12` [Example 3.4, N-Ethyl-7-(4-fluorophenoxymethyl)-5-oxo-2-(trifluoromethyl)-5H-[1,3]thiazolo[3,2-a]pyrimidine-3-carboxamide], the Max % (Table 2) is recorded as 44.6%.

With `CCN(Cc1cc(=O)n2c(C(C)O)csc2n1)c1ccc(F)cc1` (centres unmarked) [Example 10.20, 7-[(N-ethyl-4-fluoro-anilino)methyl]-3-(1-hydroxyethyl)thiazolo[3,2-a]pyrimidin-5-one], where the note is “Table 2”, the concentration for a half-maximal effect (EC50) amounted to 2.2 µM and the Max % was 178%. Take `CNC(=O)Cc1c(C(F)(F)F)sc2nc(Cn3nc(C4CC4)cc3C(F)(F)F)cc(=O)n12` [compound 79, 2-[7-[[3-cyclopropyl-5-(trifluoromethyl)pyrazol-1-yl]methyl]-5-oxo-2-(trifluoromethyl)thiazolo[3,2-a]pyrimidin-3-yl]-N-methyl-acetamide]: where the note is “Table 3”, the EC50 came to 14.3 µM. Same read-out and setting: then `Cc1sc2nc(Cc3cccc(C#N)c3F)cc(=O)n2c1C1CC1(F)F` (centres unmarked) [compound 39, 3-[[3-(2,2-Difluorocyclopropyl)-2-methyl-5-oxo-thiazolo[3,2-a]pyrimidin-7-yl]methyl]-2-fluorobenzonitrile], with 6.1 µM. As for `CCN(Cc1cc(=O)n2c(C3CC3)c(C)sc2n1)c1ccc(F)cc1` [Example 5.26, 3-cyclopropyl-7-[(N-ethyl-fluoro-anilino)methyl]-2-methyl-thiazolo[3,2-a]pyrimidin-5-one], under “Table 2”, the EC50 amounted to 0.563 µM and the Max % was found to be 149%. Regarding `N#CC1CC1c1c(C(F)(F)F)sc2nc(Cc3cccc(C(F)(F)F)c3F)cc(=O)n12` (centres unmarked) [compound 162, 2-[7-[[2-fluoro-3-(trifluoromethyl)phenyl]methyl]-5-oxo-2-(trifluoromethyl)thiazolo[3,2-a]pyrimidin-3-yl]cyclopropanecarbonitrile], where the note is “Table 3”, the EC50 turned out to be 0.199 µM.

On to `CNC(=O)c1c(C)sc2nc(Cc3cc(F)ccc3F)cc(=O)n12` [Example 21.53, 7-[(2,5-difluorophenyl)methyl]-N,2-dimethyl-5-oxo-thiazolo[3,2-a]pyrimidine-3-carboxamide], for which the Max % (Table 2) amounted to 49%.

For the compound `CCN(Cc1cc(=O)n2c(-c3cccs3)c(C)sc2n1)c1ccc(F)cc1` [Example 5.9, 7-((ethyl(4-fluorophenyl)amino)methyl)-2-methyl-3-(thiophen-2-yl)-5H-thiazolo[3,2-a]pyrimidin-5-one], for the setting “Table 2”, the EC50 turned out to be 1.3 µM and the Max % came out at 143%. Consider `Cc1sc2nc(COc3ccc(F)cc3)cc(=O)n2c1C(=O)NCC(F)(F)F` [Example 1.5, 7-(4-Fluorophenoxymethyl)-2-methyl-5-oxo-N-(2,2,2-trifluoroethyl)-5H-[1,3]thiazolo[3,2-a]pyrimidine-3-carboxamide], for which, for the setting “Table 2”, the concentration giving a half-maximal response (EC50) is 23 µM and the Max % is listed as 51.4%. `Cc1sc2nc(Cn3nc(C(F)(F)F)cc3Cl)cc(=O)n2c1Cl` [compound 192, 3-chloro-7-[[5-chloro-3-(trifluoromethyl)pyrazol-1-yl]methyl]-2-methyl-thiazolo[3,2-a]pyrimidin-5-one]: the half-maximal effective concentration (EC50) (Table 3) was found to be 0.198 µM. As for `CCNC(=O)c1c(OCC)sc2nc(Cn3nc(C(F)(F)F)cc3Cl)cc(=O)n12` [compound 175, 7-[[5-chloro-3-(trifluoromethyl)pyrazol-1-yl]methyl]-2-ethoxy-N-ethyl-5-oxo-thiazolo[3,2-a]pyrimidine-3-carboxamide], the concentration for a half-maximal effect (EC50) (Table 3) was 0.864 µM. On to `CNC(=S)c1c(C)sc2nc(COc3ccc(F)cc3)cc(=O)n12` [Example 1.17, 7-(4-Fluorophenoxymethyl)-N,2-dimethyl-5-oxo-5H-[1,3]thiazolo[3,2-a]pyrimidine-3-carbothioamide], for which, where the note is “Table 2”, the concentration giving a half-maximal response (EC50) stood at 4 µM and the Max % came out at 68.6%.

`CNC(=O)c1c(C)sc2nc(Cc3cccc(C#N)c3F)c(F)c(=O)n12` [Example 21.27]: under “Table 2”, the EC50 was found to be 16 µM and the Max % is 122%.

On to `CCNC(=O)c1c(C2CC2)sc2nc(Cc3cccc(C#N)c3)cc(=O)n12` [Example 21.43, 7-(3-cyanobenzyl)-2-cyclopropyl-N-ethyl-5-oxo-5H-thiazolo[3,2-a]pyrimidine-3-carboxamide], for which, under “Table 2”, the Max % worked out at 53.5%. Turning to `CCN(Cc1cc(=O)n2c3c(sc2n1)CCC3C(N)=O)c1ccc(F)cc1` (centres unmarked) [Example 8.11, 6-[(N-ethyl-4-fluoro-anilino)methyl]-8-oxo-2,3-dihydro-1H-cyclopenta[3,4]thiazolo[1,4-a]pyrimidine-1-carboxamide], under “Table 2”, the concentration giving a half-maximal response (EC50) came to 2.7 µM and the Max % stood at 154%.

Turning to `Cc1sc2nc(Oc3cccc(C(F)(F)F)c3)c(F)c(=O)n2c1C1CC1CO` (centres unmarked) [compound 34, 6-fluoro-3-[2-(hydroxymethyl)cyclopropyl]-2-methyl-7-[3-(trifluoromethyl)phenoxy]thiazolo[3,2-a]pyrimidin-5-one], under “Table 3”, the EC50 was found to be 24.5 µM.

For `Cc1sc2nc(Cc3nc(C(F)(F)F)cs3)cc(=O)n2c1C1CC1CO` (centres unmarked) [compound 24, 3-[2-(Hydroxymethyl)cyclopropyl]-2-methyl-7-[[4-(trifluoromethyl)thiazol-2-yl]methyl]thiazolo[3,2-a]pyrimidin-5-one], the concentration for a half-maximal effect (EC50) (Table 3) was determined as 1.33 µM.

As for `CNC(=O)c1c(C)sc2nc(Cc3cccc(C(F)(F)F)c3F)c(F)c(=O)n12` [Example 21.29, 6-fluoro-7-(2-fluoro-3-(trifluoromethyl)benzyl)-N,2-dimethyl-5-oxo-5H-thiazolo[3,2-a]pyrimidine-3-carboxamide], under “Table 2”, the EC50 stood at 4.7 µM and the Max % came out at 98.2%. With `COc1sc2nc(Cn3nc(C(F)(F)F)cc3Cl)cc(=O)n2c1-c1cccnc1` [compound 233, 7-[[5-chloro-3-(trifluoromethyl)pyrazol-1-yl]methyl]-2-methoxy-3-(3-pyridyl)thiazolo[3,2-a]pyrimidin-5-one], the EC50 (Table 3) is 6.14 µM. With `CCNC(=O)c1c(OC)sc2nc(Cn3nc(C(F)(F)F)cc3Cl)cc(=O)n12` [compound 128, 7-[[5-chloro-3-(trifluoromethyl)pyrazol-1-yl]methyl]-N-ethyl-2-methoxy-5-oxo-thiazolo[3,2-a]pyrimidine-3-carboxamide], the EC50 (Table 3) is 0.682 µM. On the same count and under the same terms, with `Cc1sc2nc(Oc3cccc(C(F)(F)F)c3F)cc(=O)n2c1C1CC1C` (centres unmarked) [compound 86, 7-[2-fluoro-3-(trifluoromethyl)phenoxy]-2-methyl-3-(2-methylcyclopropyl)thiazolo[3,2-a]pyrimidin-5-one] the figure was 10.5 µM. As for `CCN(Cc1cc(=O)n2c(-c3cncnc3)c(C)sc2n1)c1ccccn1` [Example 5.12, 7-((ethyl(pyridine-2-yl)amino)methyl)-2-methyl-3-(pyrimidin-5-yl)-5H-thiazolo[3,2-a]pyrimidin-5-one], the Max % (Table 2) came to 106%. For the compound `Cc1sc2nc(Cc3cccc(C(F)(F)F)c3F)cc(=O)n2c1C(=O)NCC#N` [Example 25.2, N-(cyanomethyl)-7-(2-fluoro-3-(trifluoromethyl)benzyl)-2-methyl-5-oxo-5H-thiazolo[3,2-a]pyrimidine-3-carboxamide], the EC50 (Table 2) is 15.2 µM. With `CNC(=O)Cc1c(C)sc2nc(Cc3cccc(C(F)(F)F)c3F)cc(=O)n12` [compound 19, 2-[7-[[2-fluoro-3-(trifluoromethyl)phenyl]methyl]-2-methyl-5-oxo-thiazolo[3,2-a]pyrimidin-3-yl]-N-methyl-acetamide], for the setting “Table 3”, the 50% effective concentration (EC50) was 5.45 µM. Regarding `CC1(C)CCc2sc3nc(Cn4nc(C5CC5)cc4C(F)(F)F)cc(=O)n3c21` [Example 27.8, 10-{[3-cyclopropyl-5-(trifluoromethyl)-1H-pyrazol-1-yl]methyl}-3,3-dimethyl-7-thia-1,9-diazatricyclo[6.4.0.0^{2,6}]dodeca-2(6),8,10-trien-12-one], the EC50 (Table 2) stood at 30.4 µM.

With `CCN(Cc1cc(=O)n2c(CO)c(C)sc2n1)c1ccc(F)cc1` [Example 10.12, 7-((ethyl(4-fluorophenyl)amino)methyl)-3-(hydroxymethyl)-2-methyl-5H-thiazolo[3,2-a]pyrimidin-5-one], for the setting “Table 2”, the EC50 turned out to be 2.1 µM and the Max % came to 149%.
